The test system of the assay is H. pylori. The assay can be described thus: Effect of comparator drugs and CGNC on the growth of H. pylori patient strains. It counts as cell-based, Helicobacter pylori. More on the design: key to Effect on the growth of H. pylori: (+) - inhibition of growth; (−) - no inhibition of growth. Particulars: for Effect on growth of H. pylori: strains 782, 785, 786, 787. As for the experimental part: The effect of the following doses of CGNC was examined: 50, 100, and 300 mg/ml. Bacteriological methods were used to conduct the study. Three doses of CGNC (50, 100 and 300 mg/ml) were used for analysis of the CGNC effect on the growth of H. pylori. Serial dilutions, of dense nutrient media containing an increasing concentration of the test substance were set up. Isolates of H. pylori inoculated on standard for this type of bacteria mediums (without CGNC) were used to control the microbial growth. The effect of the test substance was compared with the effect of the placebo (sterile saline solution—0.15 M NaCl, pH 7.0-7.2). In a comparative experiment, the effect of the antimicrobials, amoxicillin (20 μg/ml) and metronidazole (80 μg/ml), were evaluated.
Metronidazole and amoxicillin, the most common used therapeutical substances in combined anti-helicobacter therapy, were chosen as comparator-drugs. H. pylori isolated from patients (No. 782, 785, 786, 787), were used to compare the effect of CGNC (300 mg/ml), amoxicillin (20 μg/ml) and metronidazole (80 μg/ml) (Table 3). These strains were isolated from patients with chronic gastroduodenitis, gastritis associated with gastric stump, duodenal ulcer and reflux esophagitis.

“Also recorded” adds a separate entry of the source.

For `Cc1ncc([N+](=O)[O-])n1CCO` [Metronidazole], the “Effect on growth of H. pylori” value (metronidazole 80 μg/ml) is recorded as “did not have an inhibiting effect; also recorded: did not inhibit the growth”. For the same compound, the “Effect on the growth of H. pylori” value is given as “−” (strain 782 (CGD), Metronidazole 80 μg/ml); “−” (strain 785 (gastritis associated with gastric stump), Metronidazole 80 μg/ml); “−” (strain 786 (DU, reflux esophagitis), Metronidazole 80 μg/ml); “−” (strain 787 (CGD), Metronidazole 80 μg/ml).
Take `CC1(C)S[C@@H]2[C@H](NC(=O)[C@H](N)c3ccc(O)cc3)C(=O)N2[C@H]1C(=O)O` [Amoxicillin]: where the note is “amoxicillin 20 μg/ml”, the “Effect on growth of H. pylori” value is “inhibited the growth; also recorded: inhibition of growth occurred”. Also, the “Effect on the growth of H. pylori” value by setting is: (strain 782 (CGD), Amoxicillin 20 μg/ml) “+”; (strain 785 (gastritis associated with gastric stump), Amoxicillin 20 μg/ml) “+”; (strain 786 (DU, reflux esophagitis), Amoxicillin 20 μg/ml) “+”; (strain 787 (CGD), Amoxicillin 20 μg/ml) “+”.

For the origin of these results see patent US20110039816A1, “THERAPEUTIC SUBSTANCE, PHARMACEUTICAL COMPOSITION, HELICOBACTER PYLORI GROWTH INHIBITOR AND METHOD FOR CONDUCTING ANTI-HELICOBACTER THERAPY” (priority 2007, published 2011).
